The values that follow are results of earlier work, collected in patent publication US20090298940A1, “All Natural Antifungal And Antimicrobial Composition And Method Thereof” (priority 2008, published 2009).

For data set [1] the following is noted: when administered internally.
For data set [2] the following is noted: at 20° C.

As to `C/C=C/C=C/C(=O)[O-].[K+]` [potassium sorbate, potassium (E,E)-hexa-2,4-dienoate], the tolerability entry in data set [1] is on record as “well tolerated”. Further, the solubility in water in data set [2] is given as 58.2%.
